Experimental data as given in ChEMBL document CHEMBL1134866, “Design, synthesis, and biological evaluation of novel, centrally-acting thyrotropin-releasing hormone analogues” (2002).

Tested on: Mus musculus
Assay: Compound was intravenously injected into Swiss Webstar mice tail vein, the sleeping time was recorded as the time elapsed from the loss of righting reflex
Type: functional

SMILES | Sleeping time [min]
NC(=O)C1=CN(CCC[C@H](NC(=O)[C@@H]2CCC(=O)N2)C(=O)N2CCC[C@H]2C(N)=O)C=CC1 | ~59
NC(=O)C1=CN(CCC(NC(=O)[C@@H]2CCC(=O)N2)C(=O)N2CCC[C@H]2C(N)=O)C=CC1 (some centres undefined) | ~45
NC(=O)C1=CN(CCCCC(NC(=O)[C@@H]2CCC(=O)N2)C(=O)N2CCC[C@H]2C(N)=O)C=CC1 (some centres undefined) | ~47
NC(=O)C1=CN(C[C@H](NC(=O)[C@@H]2CCC(=O)N2)C(=O)N2CCC[C@H]2C(N)=O)C=CC1 | 19.3
